Data on 1 molecule can be found in US9012641B2, “Crystalline forms of Prasugrel salts” (Teva Pharmaceuticals Industries Ltd., priority 2010, dated 2015).

Counter-ions that a name gives are not always drawn.

This data set can be described thus: Storage of the sample in an open Petri dish at room conditions, reanalysed on HPLC. Conditions: room conditions (20-25° C., relative humidity 20-30%), 1 month, HPLC purity before storage 99.94%. The data set is classed as physicochemical. As for the experimental part: The sample was left in an open Petri dish at room conditions (20-25° C., relative humidity 20-30%) for 1 month and then reanalyzed on HPLC giving purity of 99.84%.

As for `CC(=O)Oc1cc2c(s1)CCN(C(C(=O)C1CC1)c1ccccc1F)C2` (stereo not shown) [form II of prasugrel hydrobromide, Prasugrel hydrobromide], the “HPLC purity after storage” value was 99.84%.
